# Results reported in patent US20100249107A1, “Biomarkers for Alzheimer's Disease Progression” (priority 2006, published 2010).
# Tested on: patients suffering from MCI
# Assay: InDDEx (ENA713B IA07) clinical trial: conversion from MCI to AD
# Format: in vivo, human
# From the text: Introduction and summary. The purpose of this EXAMPLE is to describe genetic association studies identifying twenty-five (25) AD-associated mutations of the invention. Genome-wide analyses for genetic association studies have only become possible within the past two years. The Investigation Into Delay to Diagnosis of Alzheimer's Disease With Exelon (InDDex; ENA713B IA07) clinical trial followed patients suffering from MCI and given either Exelon (rivastigmine) at various doses or placebo and followed their conversion to AD.
structure (smiles),measurement,setting,value
"CCN(C)C(=O)Oc1cccc([C@H](C)N(C)C)c1 [Exelon, rivastigmine]","Converted to AD, %","All patients (enrolled in and completed the clinical study), Exelon arm n = 508",17.32%
same,"Converted to AD, %","Genome scan population (consented for pharmacogenetic study and passed the 100K scan), Exelon arm n = 211",17.06%
